The text below walks through data of patent publication US20100317689A1, “Prodrugs of proton pump inhibitors including the 1h-imidazo[4,5-b] pyridine moiety” (priority 2006, published 2010).

Series [1] can be described thus: Stability in human plasma. The format is in vitro ADME. The protocol:
(§1) Exemplary test compounds (prodrugs) of the invention can be incubated in plasma at 37° C. to test their stability and hydrolysis to give the corresponding drug TENATOPRAZOLE. The concentration of the compounds and also of the corresponding proton pump inhibitor TENATOPRAZOLE can be determined by a gradient HPLC-UV method. Although the half-lives of test compounds in plasma is expected to vary depending on their specific structure, nevertheless it is expected that in plasma the compounds of the invention are converted into the corresponding proton pump inhibitor TENATOPRAZOLE at a rate faster than the hydrolysis rate of the compound at neutral or near neutral pH. […] Therefore the compounds of the invention and especially the preferred compounds which have the chemical structure shown in Formulas 4 and 5 are good candidates to be used as prodrugs in intravenous injection and are expected to release the active proton pump inhibitor in vivo.

Series [2] is described as follows: Stability in rat plasma at 37° C., hydrolysis to tenatoprazole. It counts as in vitro ADME. As for the experimental part:
as §1

Series [3] in a line: Stability at physiological pH 7.4 without plasma or blood. The format is physicochemical. The protocol:
as §1

The subject of series [4] is histamine and carbachol-stimulated gastric acid secretion. Briefly: Inhibition of gastric acid secretion of the conscious male rat, oral administration. It counts as in vivo. The following applies: 40 μmole/kg, pylorus ligated 3 hours after administration, gastric juice collected two hours later. As for the experimental part: Male rats (the Sprague-Dawley strain) are used in this assay. Salts of known benzimidazole type proton pump inhibitors, such as OMEPRAZOLE sodium salt, LANSOPRAZOLE sodium salt or TENATOPRAZOLE sodium salt (20 mg) is suspended in 10 ml of 0.1 N NaHCO3. 70 mg of each of the sodium salts of the compounds of the present invention are dissolved in 6 ml of 50% DMSO-50% 50 mM sodium phosphate buffer, pH 7.4. The doses administered to the rats are as follows (μmole per kg body weight of the rat): TENATOPRAZOLE (40 μmole/kg), a mixture of sodium 2-(4-(5-methoxy-2-((4-methoxy-3,5-dimethylpyridin-2-yl)methylsulfinyl)-1H-imidazo[4,5-b]pyridin-1-ylsulfonyl)phenoxy)acetate (Compound 1) and sodium 2-(4-(5-methoxy-2-((4-methoxy-3,5-dimethylpyridin-2-yl)methylsulfinyl)-3H-imidazo[4,5-b]pyridin-3-ylsulfonyl)phenoxy)acetate (1:1 of the isomeric mixture) 20 μmole/kg, and 40 μmole/kg. These drug solutions are orally administered. 3 hours after administration the abdomen of the rat is incised and the pylorus is ligated under light ether anethesia. […] The gastric juice is collected and acid output is quantified by titration using 0.1 N NaOH solution. […] Acid output is quantified by same method as described above, showing maximum histamine and carbachol-stimulated gastric acid secretion. Percentage inhibition is calculated from the fractional responses elicited by the test compound and a control experiment.

Series [5] is described as follows: Plasma concentration of tenatoprazole after oral dosing in rats. The format is in vivo, rat.

Regarding `COc1ccc2c(n1)nc([S+]([O-])Cc1ncc(C)c(OC)c1C)n2S(=O)(=O)c1ccc(OCC(=O)[O-])cc1.[Na+]` (stereo not drawn) [Compound 1, sodium 2-(4-(5-methoxy-2-((4-methoxy-3,5-dimethylpyridin-2-yl)methylsulfinyl)-1H-imidazo[4,5-b]pyridin-1-ylsulfonyl)phenoxy)acetate], the half-life in series [1] amounted to 1.35 min.

“sodium 2-(4-(5-methoxy-2-((4-methoxy-3,5-dimethylpyridin-2-yl)methylsulfinyl)-1H-imidazo[4,5-b]pyridin-1-ylsulfonyl)phenoxy)acetate (Compound 1) and sodium 2-(4-(5-methoxy-2-((4-methoxy-3,5-dimethylpyridin-2-yl)methylsulfinyl)-3H-imidazo[4,5-b]pyridin-3-ylsulfonyl)phenoxy)acetate [1:1 mixture of Compound 1 and its positional isomer]”: the “half-life in rat plasma” value in series [2] came to 1.2 min. For the same compound, the “half-life in physiological pH 7.4 without the plasma or blood” value in series [3] is “greater than 24 hr”. Besides, the “inhibition of gastric acid secretion” value in series [4] was found to be 83.3±13.7%. The “plasma concentration of tenatoprazole” value in series [5] (male Sprague-Dawley rats, oral 40 μmole/kg, 5 h postdose) came to 1940 ± 1685 ng/mL. Besides, the “plasma level and half-life of TENATOPRAZOLE compared with TENATOPRAZOLE itself” value in series [5] (rat, oral) is recorded as “maintains higher plasma level of TENATOPRAZOLE with longer plasma half-life”.

What is called half-life is the time in which the quantity being followed falls by half. Lower therefore signals rapid decline.
